In patent US8551951B2, “Pharmaceutical preparations and methods for inhibiting tumors” (Aenorasis SA Pharmaceuticals and Medical Devices, priority 2000, dated 2013):
Peptide text beside a SMILES is read from it.

How the values were obtained:
[1] = test system: human prostate cancer cells PC-3; experiment: MTS assay, growth inhibitory effect on PC-3 cells; assay type: cell-based; details: for growth inhibition of PC-3 cells (FIG. 10): 72 hours
Text: Cell proliferation was monitored on PC-3 cells using the MTS/PMS (phenazine methosulfate) kit (Promega), which primarily measures mitochondrial activity of live cells. The basic principle of this method involves the fact that the mitochondrial enzymes of the live cells metabolize the MTS/PMS dyes forming a brown colored precipitate which can be measured as optical density (OD) by absorption at 490 nm in a spectrophotometer. Therefore, the OD values are proportional to the number of living cells. In addition, monitoring of cell morphology was also performed. Cell morphology would be indicative of their health status. For example, viable cells would appear adherent and spread out whereas dead cells would be in suspension in the media and would appear granular and round.
PC-3 cells (ATCC, Lot AT06) used in these experiments were at a passage number lower or equal to 70 (n≧70). Cells were seeded in Costar 96 well cell culture flat bottom plates in RPMI supplemented media containing 50 μg/ml of bovine serum albumin (BSA) and 0.1 μM FeSO4. Peptide was diluted in the same media. Cells were continuously exposed to the polypeptides of the present invention for 72 hours without changing media. Native PSP94 or rHuPSP94 concentrated two fold were directly added to wells and diluted to 1× in order to minimize cell manipulation and avoid detachment.
Native PSP94, rHuPSP94, polypeptide 22-36 and PB111 polypeptide (scrambled polypeptide) were also included in this experiment as controls. Cell proliferation assay was performed on either PC-3 cells or normal fibroblasts (used here as control) using the MTS/PMS kit (Promega). Four thousand cells (FIGS. 9 and 10) or three thousand (FIG. 11) cells were seeded in Costar 96 well cell culture flat bottom plates in RPMI supplemented media containing 50 μg/ml of bovine serum albumin (BSA) and 0.1 μM FeSO4. In addition, monitoring of cell morphology was also performed.
This assay measures the mitochondrial activity of the live cells. The basic principle of this method involves the fact that the mitochondrial enzymes of the live cells metabolize the MTS/PMS dyes forming a brown colored precipitate which can be measured as optical density (OD) by absorption at 490 nm in a spectrophotometer. Therefore, the OD values are proportional to the number of living cells.
In addition, a visual observation of the cells was also done to check the cell morphology, which could also be indicative of cell growth. The following conditions for MTS assay were used: PC-3 (ATCC, Lot AT06), passage number n≧70, cell line adapted to grow in serum-free OPTI-MEM and in RPMI supplemented with BSA (50 μg/ml) and Ferrous Sulfate (0.1 μM), continuous exposure for up to 72 hours without changing media (i.e., adding PCK3145 at 2× concentration directly to wells and diluting it 1:2 to 1× to minimize cell manipulation and avoid detachment).

[2] = test system: PC-3 cells; experiment: DNA fragmentation assay (DNA ladder, apoptosis); assay type: cell-based, human; details: for DNA laddering effect: various concentrations
Procedure, shortened: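 PC-3 cells were exposed for 72 h to the polypeptides at various concentrations, PCK3145 at 500 μg/ml in supplemented medium; untreated cells and doxorubicin served as controls. Isolated DNA was run on 1.2% agarose with ethidium bromide, and a DNA ladder was scored as apoptotic fragmentation.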

[3] = test system: PC-3 cells; experiment: Apoptosis assay by ELISA plus; assay type: cell-based, human; details: for apoptotic cell death effect: 22.5 μM to 90 μM, 72 hours
Description: The three polypeptides (SEQ ID NO: 4, SEQ ID NO: 5 and SEQ ID NO 6) and native PSP94 used here as a positive control were tested in ELISA plus assay to measure cell death through apoptosis. Briefly, the ELISA plus assay is a sandwich enzyme immunoassay able to measure mono- and oligonucleosomes present in the cytoplasmic fraction of cell lysate using two antibodies, one directed against DNA and the other directed against histones. The apoptotic cell death is characterized by activation of endogenous endonucleases (e.g., calcium- and magnesium-dependant), which cleave double-stranded DNA at the most accessible internucleosomal linker region, generating mono- and oligonucleosomes. The enrichment of mono- and oligonucleosomes in the cytoplasm of the apoptotic cells is due to the fact that DNA degradation occurs several hours before plasma membrane breakdown.
Four thousand cells were seeded in Costar 96 well cell culture flat bottom plates in RPMI supplemented media containing 50 μg/ml of bovine serum albumin (BSA) and 0.1 μM FeSO4. The PC-3 cells were treated with various concentrations (22.5 μM to 90 μM) of polypeptides for 72 hours. Apoptosis assay was done as per manufacturer's instructions using the ApopTag kit (Boeringher Mannheim).

Molecule	inhibitory effect on the growth of PC-3 cells ([1]; 0 to 400 μg/ml, tests repeated 5 times)	growth inhibition of PC-3 cells (FIG. 10) [1]	DNA laddering effect (FIG. 7 lane 5) ([2]; 22.5 μM)	DNA laddering effect (FIG. 7 lane 6) ([2]; 45 μM)	DNA fragmentation (FIG. 25) ([2]; 500 μg/ml, 72 hours, supplemented media)	DNA laddering effect ([2]; 72 hours)	apoptotic cell death effect [3]	apoptotic cell death, potency relative to the other polypeptides ([3]; 90 μM)
C[C@@H](O)[C@H](NC(=O)[C@H](CCC(=O)O)NC(=O)[C@H](Cc1ccc(O)cc1)NC(=O)[C@H](CS)NC(=O)[C@@H](NC(=O)[C@H](CS)NC(=O)[C@@H](NC(=O)[C@H](CCC(=O)O)NC(=O)[C@H](CS)NC(=O)[C@H](CC(N)=O)NC(=O)[C@H](CC(=O)O)NC(=O)[C@@H](NC(=O)[C@H](CCC(N)=O)NC(=O)[C@H](Cc1c[nH]c2ccccc12)NC(=O)[C@@H](N)CCC(=O)O)[C@@H](C)O)[C@@H](C)O)[C@@H](C)O)C(=O)O [PCK3145, EWQTDNCETCTCYET] (H-EWQTDNCETCTCYET-OH; N-terminus and C-terminus assumed)	dose dependent inhibitory effect	significant growth inhibition	DNA laddering effect	DNA laddering effect	resulted in DNA fragmentation	induced a DNA laddering effect characteristic of apoptosis	dose dependent increase in the apoptotic cell death effect	more potent than the other polypeptides
polypeptide 7-21: PSP94 derived synthetic polypeptide from the amino terminus end, SEQ ID NO: 4 (NEGVPGDSTRKCMDL; Polypeptide 7-21)	–	significant growth inhibition	–	–	–	induced a DNA laddering effect characteristic of apoptosis	dose dependent increase in the apoptotic cell death effect	–
